The record followed here is patent publication US9297017B2, “Methods and compositions for targeted protein degradation” (University of Washington, priority 2010, dated 2016).

Several values for one entry are separate records, joined by “and”; a condition that tells them apart may be missing. Equal entries are not always repeated. Where two headings read alike, the source gives them in different places.

The target in one experiment is T1, COI1/JAZ1 complex (Arabidopsis thaliana, UniProt O04197+Q9LMA8).
T1 construct: Full-length Arabidopsis thaliana COI1 and ASK1 were co-expressed; Full-length JAZ substrate proteins were expressed as 6×His-fusion proteins in Escherichia coli; GST (cleaved yes); 6xHis; made in house; host or cells: Hi5 insect cells (COI1/ASK1); Escherichia coli (JAZ1)
T1 sequence (O04197 1-592): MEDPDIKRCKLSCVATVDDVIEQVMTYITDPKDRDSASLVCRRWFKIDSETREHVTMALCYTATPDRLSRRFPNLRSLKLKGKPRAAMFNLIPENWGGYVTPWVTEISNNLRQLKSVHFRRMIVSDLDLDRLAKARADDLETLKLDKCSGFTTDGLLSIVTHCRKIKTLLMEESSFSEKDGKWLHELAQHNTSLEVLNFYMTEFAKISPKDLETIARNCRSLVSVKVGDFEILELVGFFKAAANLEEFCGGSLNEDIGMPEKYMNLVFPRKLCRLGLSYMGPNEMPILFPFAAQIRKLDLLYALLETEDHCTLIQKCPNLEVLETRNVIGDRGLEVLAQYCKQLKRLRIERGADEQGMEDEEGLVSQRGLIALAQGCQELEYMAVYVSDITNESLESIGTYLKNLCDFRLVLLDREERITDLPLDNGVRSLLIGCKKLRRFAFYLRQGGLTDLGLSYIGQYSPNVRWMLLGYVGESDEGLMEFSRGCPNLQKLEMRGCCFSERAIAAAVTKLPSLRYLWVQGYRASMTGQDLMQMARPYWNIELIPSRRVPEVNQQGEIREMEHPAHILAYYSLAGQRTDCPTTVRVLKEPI
T1 sequence (Q39255 1-160 partner): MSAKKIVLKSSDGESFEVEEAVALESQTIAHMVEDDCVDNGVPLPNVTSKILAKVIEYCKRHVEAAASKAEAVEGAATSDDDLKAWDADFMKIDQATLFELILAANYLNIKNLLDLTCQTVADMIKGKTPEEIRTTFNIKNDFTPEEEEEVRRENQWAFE
T1 sequence (Q9LMA8 1-253): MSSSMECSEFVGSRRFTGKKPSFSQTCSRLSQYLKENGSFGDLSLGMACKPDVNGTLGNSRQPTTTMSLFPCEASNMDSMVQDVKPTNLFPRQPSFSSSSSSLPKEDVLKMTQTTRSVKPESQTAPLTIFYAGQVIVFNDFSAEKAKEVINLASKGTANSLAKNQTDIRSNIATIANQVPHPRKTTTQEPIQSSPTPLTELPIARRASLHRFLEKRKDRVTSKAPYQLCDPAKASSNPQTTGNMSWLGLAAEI
Put plainly: Saturation radioligand binding of 3H-coronatine to COI1/ASK1 in the presence of JAZ1. The text has this: (§1) (^3H)-labeled coronatine was synthesized by Amersham. Full-length Arabidopsis thaliana COI1 and ASK1 were co-expressed as a glutathione S-transferase (GST) fusion protein and an untagged protein, respectively, in Hi5 suspension insect cells. The COI1/ASK1 complex was isolated from the soluble cell lysate by glutathione affinity chromatography. After on-column tag cleavage by tobacco etch virus protease, the complex was further purified by anion exchange and gel filtration chromatography and concentrated by ultrafiltration to 12-18 mg ml^−1. Full-length JAZ substrate proteins were expressed as 6×His-fusion proteins in Escherichia coli and purified on Ni-NTA resin with subsequent dialysis into 20 mM Tris-HCl, pH 8.0, 200 mM NaCl, and 10% glycerol.
(§2) Radioligand binding was assayed on purified proteins, with 2 mg COI1/ASK1 complex and JAZ proteins at a 1:3 molar ratio. […] Nonspecific binding was determined in the presence of […] coronatine. Competition binding experiments were conducted with serial dilutions of JA-Ile in the presence of 100 nM ^3H coronatine with nonspecific binding determined in the presence of […] coronatine. Total binding was determined in the presence of vehicle only. Two-point binding experiments were performed in the presence of 100 nM or 300 nM ^3H-coronatine with nonspecific binding determined in the presence of 300 mM coronatine. […]

Experiment [1] addresses T2, COI1-JAZ6 complex (Arabidopsis thaliana, UniProt O04197+Q9C9E3).
T2 construct: Full-length Arabidopsis thaliana COI1 and ASK1 were co-expressed; Full-length JAZ substrate proteins were expressed as 6×His-fusion proteins in Escherichia coli; GST (cleaved yes); 6xHis; made in house; host or cells: Hi5 insect cells (COI1/ASK1); Escherichia coli (JAZ6)
T2 sequence (O04197 1-592): T1 sequence (O04197 1-592)
T2 sequence (Q39255 1-160 partner): T1 sequence (Q39255 1-160 partner)
T2 sequence (Q9C9E3 1-269): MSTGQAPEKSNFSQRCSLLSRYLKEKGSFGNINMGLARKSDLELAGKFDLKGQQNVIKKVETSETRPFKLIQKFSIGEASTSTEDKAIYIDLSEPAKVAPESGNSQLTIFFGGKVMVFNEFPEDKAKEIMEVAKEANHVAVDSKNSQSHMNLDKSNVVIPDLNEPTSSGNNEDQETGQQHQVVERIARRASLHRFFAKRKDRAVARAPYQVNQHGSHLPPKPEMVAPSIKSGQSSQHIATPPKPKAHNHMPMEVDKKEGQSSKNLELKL
Briefly: Saturation radioligand binding of 3H-coronatine to COI1/ASK1 in the presence of JAZ6.
Text: as §1
(§3) Radioligand binding was assayed on purified proteins, with 2 mg COI1/ASK1 complex and JAZ proteins at a 1:3 molar ratio. Reactions were prepared in […] final volume and in a binding buffer containing 20 mM Tris-HCl 200 mM NaCl, and 10% glycerol. Saturation binding experiments were conducted with serial dilutions of 3H-coronatine in binding buffer. Nonspecific binding was determined in the presence of […] coronatine. Competition binding experiments were conducted with serial dilutions of JA-Ile in the presence of 100 nM ^3H coronatine with nonspecific binding determined in the presence of […] coronatine. Total binding was determined in the presence of vehicle only. Two-point binding experiments were performed in the presence of 100 nM or 300 nM ^3H-coronatine with nonspecific binding determined in the presence of […] coronatine. Following incubation with mixing at 4° C., all samples were collected with a cell harvester (Brandel, Gaithersburg, Md.) on polyethyleneimine (Sigma)-treated filters. […] Saturation binding experiments were analyzed by nonlinear regression, competition binding experiments by nonlinear regression with Ki calculation as described previously (Cheng 1973), and concentration-response data by sigmoidal dose-response curve fitting, all using GraphPad Prism version 4.00 for MacOSX.

The target in another experiment is T3, COI1 (Arabidopsis thaliana, UniProt O04197).
T3 construct: Full-length Arabidopsis thaliana COI1 and ASK1 were co-expressed; GST (cleaved yes); made in house; host or cells: Hi5 insect cells (COI1/ASK1); JAZ peptides synthetic
T3 sequence (O04197 1-592): T1 sequence (O04197 1-592)
T3 sequence (Q39255 1-160 partner): T1 sequence (Q39255 1-160 partner)
Briefly: Radioligand binding of 3H-coronatine to COI1 alone.
Text: as §1, §3

Another experiment has as its target T4, full-length JAZ1 (Arabidopsis thaliana, UniProt Q9LMA8).
T4 construct: 6xHis; made in house; host or cells: Escherichia coli
T4 sequence (Q9LMA8 1-253): T1 sequence (Q9LMA8 1-253)
Briefly: Radioligand binding of 3H-coronatine to full-length JAZ1 alone.
Text: as §1, §2

The next experiment addresses T5, full-length JAZ6 (Arabidopsis thaliana, UniProt Q9C9E3).
T5 construct: 6xHis; made in house; host or cells: Escherichia coli
T5 sequence (Q9C9E3 1-269): T2 sequence (Q9C9E3 1-269)
Put plainly: Radioligand binding of 3H-coronatine to full-length JAZ6 alone.
Text: as §1, §2

Experiment [2] has as its target T2, COI1-JAZ6 complex. Put plainly: Competition binding with 100 nM 3H-coronatine. Particulars: relative to (3R,7S)-JA-Ile.
Text: as §1, §3

Broadly, the Kd is the free concentration of one partner at which half of the binding sites on the other are occupied at equilibrium, for simple one-to-one binding. Regarding `CC[C@H]1C=C(C(=O)N[C@@]2(C(=O)O)C[C@@H]2CC)[C@H]2CCC(=O)[C@H]2C1` [coronatine], the “Binding affinity for COI1/JAZ1 complex” value at COI1/JAZ1 complex was “high affinity”. In addition, the Kd at COI1/JAZ1 complex (COI1/JAZ1 complex, listed as 3H-coronatine) is 68 nM and 48 nM; on COI1-JAZ6 complex [1] (COI1/JAZ6 complex, listed as 3H-coronatine), 48 nM and 68 nM. Moreover, the “Binding affinity for COI1/JAZ6 complex” value on COI1-JAZ6 complex [1] is “high affinity”. Also, the “Concentration at which binding reached the level of saturation” value on COI1-JAZ6 complex [1] (COI1/JAZ6 complex) came to 300 nM. The “Specific binding to COI1 alone” value at COI1 (300 nM coronatine) is under 2%. Also, the “Binding affinity for COI1 alone” value at COI1 is “minimal binding affinity”; at COI1 (listed as 3H-coronatine) it was “no appreciable binding affinity”. Also, the figures for the “Binding affinity for JAZ1 alone” value on full-length JAZ1 and at full-length JAZ1 (listed as 3H-coronatine) were “minimal binding affinity” and “no appreciable binding affinity”, respectively. Further, the results for the “Binding affinity for JAZ6 alone” value at full-length JAZ6 and at full-length JAZ6 (listed as 3H-coronatine) were “minimal binding affinity” and “no appreciable binding affinity”, respectively. At COI1-JAZ6 complex [2], the “Affinity of coronatine over (3R,7S)-JA-Ile in binding assays” value is “approximately tenfold”.
